Assay results reported in patent US12594263B2, “CBL inhibitors and compositions for expansion of immune cells” (Nurix Therapeutics, Inc., priority 2019, dated 2026).

Columns and labels:
[1] = tested on: OT-1 CD8+ T cells; assay: Ex vivo expansion and immunophenotyping of OT-1 CD8+ T cells; assay type: cell-based, mouse; details: 1 μM, three days, plate-bound anti-CD3
Description: Antigen specific T cells from transgenic mice can be leveraged as a model for CAR T or TIL expansion ex vivo with a Cbl inhibitor. The OT-1 transgenic animals, that are commercially available, have CD8 T cells that recognize OVA peptide aa 257-264 when presented by the MHC I molecule. CD8+ T cells from OT-1 mice were isolated from a single cell suspension of splenocytes by negative selection (StemCell Technologies cat #19853 EasySep™ Mouse CD8+ T Cell Isolation Kit). Cell were then resuspended in complete media (RPMI1640, 10% heat inactivated FBS, 1× Penicillin/Streptomycin, 1× Glutamine and β-mercaptoethanol) at concentration of 0.5×10^6 per mL. Six well tissue culture plates (Falcon) were coated with 2 ug/mL of anti-mouse CD3 (Bio Xcell Cat #BE0001-1-R100 mg InVivoMAb anti-mouse CD3ε Clone: 145-2C11) for >3 hrs at 37° C. and washed with PBS (MediaTech) prior to cell addition. […] Following three days of OT-1 T cell activation and expansion the cells were collected, counted and immunophenotyped by flow cytometry by measuring expression of differentiation and additional T cell makers including: CD3, CD4, CD8, CD45, CD25, Granzyme B, CD107a, CD127, PD-1, TIM3, LAG3, KLRG-1, ICOS, TCF1, Ki67, T-bet and FOXP3.

[2] = tested on: human T cells from peripheral blood mononuclear cells; assay: Expansion of CMV pp65 reactive T cells from peripheral blood mononuclear cells; assay type: cell-based; details: for Percentage of total cell number relative to IL-2 alone on day 11: alone or with IL-2 2 ng/mL
Description: (§1) At day eleven, cells were pooled and counted, and immunophenotyped at day 11 by flow cytometry by measuring expression of lineage (CD4, CD8) and differentiation (including CD45RA, CD45RO, CD95, CCR7, CD62L, TCF1, PD-1, TIM3, LAG3) markers.

[3] = tested on: human tumor-infiltrating lymphocytes (TIL); assay: Flow cytometry immunophenotyping of expanded TIL (lineage and memory markers); assay type: cell-based; details: for CD4 TCM CD62L+ CCR7+, percentage of total TIL cell number on day 28: TIL1 population, alone or with IL-2
Protocol: The plates were placed in a humidified 37° C. incubator with 5% CO2. Half of the medium was replaced every two days after culture initiation. […] Subsequently, half the media was replaced thrice weekly, cultures were split to maintain a cell density of 1×10^6 cells/mL. […] Mitochondrial markers including, Mitotracker, Mitoprobe, and 2-NBDG may also be used to assess differentiation and/or activation of cells.
(§2) T lymphocytes were defined based on lineage and differentiation marker expression according to the developmental model (Restifo, Blood, 124:476-477, 2014), as shown in Table 4.

[4] = tested on: human T cells from donor PBMC; assay: Flow cytometry immunophenotyping of T cells expanded from donor PBMC; assay type: cell-based
Description: as §1, §2

[5] = tested on: OT-1 cells; assay: Re-stimulation of harvested splenocytes with OVA Class I peptide; assay type: cell-based, mouse
Protocol: The expanded OT-1 cells were characterized by FACS analysis and transferred into E.G7-OVA mice, which bear ovalbumin (OVA) expressing tumors. Following in vivo transfer of expanded OT-1 cells, antitumor response was monitored over time and the quality and quantity of immune response was assessed at various time points. Analysis included FACS analysis on blood, tumor, and spleen samples. Analysis also included re-stimulation of splenocytes with OVA Class I peptide to evaluate the multifunctionality of the antigen-specific effector T cells.
Expanded OT-1 cells were assessed from splenocytes 11 days after transfer. Harvested splenocytes were re-stimulated with OVA Class I peptide for 72 hours.
Expanded OT-1 cells were assessed from splenocytes 11 days after transfer. Harvested splenocytes were re-stimulated with OVA Class I peptide for 4 hours.
Expanded OT-1 cells were assessed from splenocytes 11 days after transfer. Harvested splenocytes were re-stimulated with OVA Class I peptide for 24 hours.

[6] = tested on: human tumor-infiltrating lymphocytes (TIL); assay: Rapid Expansion Protocol (REP) of TIL; assay type: cell-based; details: alone or with IL-2 6000 IU/mL
Protocol: PBMC, OKT3 antibody (30 ng/mL), complete medium (“CM”), AIM V media (GIBCO/BRL), and TIL effector cells were combined, mixed, and aliquoted to a 75 cm^2 tissue culture flask. Flasks were incubated upright at 37° C. in 5% CO2. […] About 14 days after initiation of the REP, cells were harvested and cryopreserved for future experimental analysis.

[7] = tested on: TIL from ovarian, colon and breast cancer tissues; assay: Phenotype of TIL expanded 14 days in GREX 10 flasks; assay type: cell-based, human; details: GREX 10 format, versus IL-2 alone (FIG. 26)
Protocol: TIL directly derived from fresh ovarian, colon and breast cancer tissues (fresh, n=7) obtained after 14 days' ex vivo culture of cancer tissue fragments were analyzed by flow cytometry.
TIL directly derived from fresh ovarian, colon and breast cancer tissues (fresh, n=7) obtained after 14 days' ex vivo culture of cancer tissue fragments were analyzed by flow cytometry. FIG. 26 provides FACS data showing percentages of central memory (CD45RO+CD8+) and effector memory (CD45RO+CD8-) phenotype among CD8+CD45RO+, respectively. FACS results were expressed as the mean SEM.

Structure (SMILES): C[C@@H]1CN(Cc2cc3c(c(C(F)(F)F)c2)CN(c2cccc(C4(Cc5nncn5C)COC4)c2)C3=O)CCC1(F)F [Compound 103]
- Effector function of expanded OT-1 cells (granzyme and T-bet) [1]: trend of increased effector function
- Percentage of total cell number relative to IL-2 alone on day 11 ([2]; Donor 1, 0.1 μM Cbl-i): 12%
- Percentage of total cell number relative to IL-2 alone on day 11 ([2]; Donor 1, 1.0 μM Cbl-i): 12%
- Percentage of total cell number relative to IL-2 alone on day 11 ([2]; Donor 1, 10 μM Cbl-i): 44%
- Percentage of total cell number relative to IL-2 alone on day 11 ([2]; Donor 2, 0.1 μM Cbl-i): 70%
- Percentage of total cell number relative to IL-2 alone on day 11 ([2]; Donor 2, 1.0 μM Cbl-i): 95%
- Percentage of total cell number relative to IL-2 alone on day 11 ([2]; Donor 2, 10 μM Cbl-i): 45%
- Percentage of total cell number relative to IL-2 alone on day 11 ([2]; Donor 3, 1.0 μM Cbl-i): 75%
- Percentage of total cell number relative to IL-2 alone on day 11 ([2]; Donor 3, 10 μM Cbl-i): 38%
- Expansion of T cells in the absence of IL-2 ([2]; PBMC, no IL-2): considerable expansion of T cells
- CD4 TCM CD62L+ CCR7+, percentage of total TIL cell number on day 28 ([3]; 0.1 μM Cbl-i): 2.8%
- CD4 TCM CD62L+ CCR7+, percentage of total TIL cell number on day 28 ([3]; 1.0 μM Cbl-i): 8.0%
- Phenotype of human TIL expanded ex vivo ([3]; Table 5): TCM (CD45RO+, CD95+, CCR7+, CD62L+) or TEM (CD45RO+, CD95+, CCR7−, CD62L−) phenotype
- Expansion of CD8+ versus CD4+ T lymphocytes in TIL culture ([3]; tumor sample, FIG. 7): selectively expand CD8+ T lymphocytes
- Percentage of CD8+ cells in culture ([4]; 1 μM Cbl inhibitor alone, versus IL-2 alone): higher percentages of CD8+ cells than those cultured in IL-2 alone
- Phenotype of human T cells expanded ex vivo ([4]; donor PBMC, Table 7): TSCM (CD45RA+, CD95+, CCR7+, CD62L+), TCM (CD45RO+, CD95+, CCR7+, CD62L+) or TEM (CD45RO+, CD95+, CCR7−, CD62L−) phenotype
- CD4 TsCM, percentage of total cell number on day 11 ([4]; donor PBMC, 0.1 μM Cbl-i, alone or with IL-2): 12%
- Selective expansion of CD8+ T lymphocytes ([4]; donor PBMCs, FIGS. 2A and 2B): selectively expand CD8+ T lymphocytes from donor PBMCs
- Exhaustion markers (PD1 and TIM3) in multifunctional cells ([5]; OVA Class I peptide 4 hours, versus IL-2 alone (FIG. 16C)): lower level of expression of exhaustion markers (PD1 and TIM3)
- Multifunctionality (IFN-gamma and TNF-alpha double positive cells) ([5]; OVA Class I peptide 4 hours, versus IL-2 alone (FIGS. 16A, 16B)): comparable multifunctionality
- IL-2 production upon restimulation ([5]; OVA Class I peptide 24 hours (FIG. 17B)): increased IL-2 production upon restimulation
- Ability to proliferate in response to peptide restimulation ([5]; splenocytes 11 days after transfer, OVA Class I peptide 72 hours (FIG. 15)): superior intrinsic ability to proliferate in response to peptide restimulation
- Percentage of total cell number relative to IL-2 alone on day 42 (Pre-REP and REP) ([6]; TIL1 (ovary), 0.1 μM Cbl-i): 40%
- Percentage of total cell number relative to IL-2 alone on day 42 (Pre-REP and REP) ([6]; TIL1 (ovary), 1.0 μM Cbl-i): 42%
- Percentage of total cell number relative to IL-2 alone on day 42 (Pre-REP and REP) ([6]; TIL1 (ovary), 10 μM Cbl-i): 32%
- Percentage of total cell number relative to IL-2 alone on day 42 (Pre-REP and REP) ([6]; TIL3 (ovary), 1.0 μM Cbl-i): 150%
- Percentage of total cell number relative to IL-2 alone on day 42 (Pre-REP and REP) ([6]; TIL4 (colon), 0.1 μM Cbl-i): 80%
- Percentage of total cell number relative to IL-2 alone on day 42 (Pre-REP and REP) ([6]; TIL4 (colon), 1.0 μM Cbl-i): 80%
- Percentage of total cell number relative to IL-2 alone on day 42 (Pre-REP and REP) ([6]; TIL6 (ovary), 0.1 μM Cbl-i): 51%
- Percentage of total cell number relative to IL-2 alone on day 42 (Pre-REP and REP) ([6]; TIL6 (ovary), 1.0 μM Cbl-i): 63%
- Percentage of total cell number relative to IL-2 alone on day 42 (Pre-REP and REP) ([6]; TIL6 (ovary), 10 μM Cbl-i): 49%
- CD8+ central memory T cells [7]: increases CD8+ central memory T cells
